Data taken from patent publication US20070128217A1 (priority 2003, published 2007).

Tests used:
[1] = tested on: rabbit serum obtained by immunizing a rabbit with the SARS-CoV strain Frankfurt 1; format: binding; design: Binding of a rabbit serum to linear peptides / Binding of a rabbit serum to looped peptides / Rabbit serum linear peptides / Rabbit serum looped peptides / Binding of a rabbit serum to linear peptides of protein N of SARS-CoV Urbani (Rabbit serum linear peptides) / Binding of a rabbit serum to looped/cyclic peptides of protein N of SARS-CoV Urbani (Rabbit serum looped peptides): unit not given here
[2] = tested on: antibodies in sera from SARS patients (sera 1a, 1b, 2, 6, 37, 62, London, SARS-yellow, SARS-green); format: binding, human; design: Binding of serum 6 to linear peptides of protein X1 of SARS-CoV Urbani / Binding of serum 37 to linear peptides of protein X1 of SARS-CoV Urbani / Binding of serum 6 to looped/cyclic peptide (PEPSCAN-ELISA) / Binding of serum 37 to looped/cyclic peptide (PEPSCAN-ELISA) / Binding of serum 37 to looped/cyclic peptides of protein X1 of SARS-CoV Urbani / Binding of serum 6 to linear peptides of protein X2 / Binding of serum 37 to linear peptides of protein X2 / Binding of serum 37 to looped/cyclic peptides of protein X2 of SARS-CoV Urbani / Binding of serum 6 to linear peptides of protein M of SARS-CoV Urbani / Binding of serum 37 to linear peptides of protein M of SARS-CoV Urbani / Binding of serum 6 to looped/cyclic peptides of protein M of SARS-CoV Urbani / Binding of serum 37 to looped/cyclic peptides of protein M of SARS-CoV Urbani / Binding of serum 6 to linear peptides of protein X3 of SARS-CoV Urbani / Binding of serum 37 to linear peptides of protein X3 of SARS-CoV Urbani / Binding of serum 37 to looped/cyclic peptides of protein X3 of SARS-CoV Urbani / Binding of serum 6 to linear peptides of protein X4 of SARS-CoV Urbani / Binding of serum 37 to linear peptides of protein X4 of SARS-CoV Urbani / Binding of serum 37 to looped/cyclic peptides of protein X4 of SARS-CoV Urbani / Binding of serum 6 to linear peptides of protein X5 of SARS-CoV Urbani / Binding of serum 37 to linear peptides of protein X5 of SARS-CoV Urbani / Binding of serum 37 to looped/cyclic peptides of protein X5 of SARS-CoV Urbani / Binding of serum 6 to linear peptides of protein N of SARS-CoV Urbani / Binding of serum 37 to linear peptides of protein N of SARS-CoV Urbani / Binding of serum 6 to linear peptide (PEPSCAN-ELISA) / Binding of serum 1a to looped/cyclic peptides of protein N of SARS-CoV Urbani / Binding of serum 1b to looped/cyclic peptides of protein N of SARS-CoV Urbani / Binding of serum 2 to looped/cyclic peptides of protein N of SARS-CoV Urbani / Binding of serum 6 to looped/cyclic peptides of protein N of SARS-CoV Urbani / Binding of serum 37 to looped/cyclic peptides of protein N of SARS-CoV Urbani / Binding of serum 62 to looped/cyclic peptides of protein N of SARS-CoV Urbani / Binding of serum London to looped/cyclic peptides of protein N of SARS-CoV Urbani / Binding of serum SARS-green to looped/cyclic peptides of protein N of SARS-CoV Urbani: unit not given here
[3] = tested on: control sera (pooled serum of ten healthy LUMC hospital workers; commercial negative donor pooled serum from the Dutch bloodbank); format: binding, human; design: Binding of Control serum LUMC to linear peptides / Binding of Control serum Blood-bank to linear peptides / Binding of Control serum LUMC to looped peptides / Binding of Control Serum Blood-Bank to Looped peptides / Binding of Control serum LUMC to linear peptides of the protein M of SARS-CoV Urbani / Binding of Control serum Blood-bank to linear peptides of the protein M of SARS-CoV Urbani / Binding of Control serum LUMC to looped peptides of the protein M of SARS-CoV Urbani / Binding of Control Serum Blood-Bank to Looped peptides of the protein M of SARS-CoV Urbani: unit not given here

FTEVYYQLESTQITT
Binding of a rabbit serum to linear peptides [1]: 0.1
Binding of a rabbit serum to looped peptides [1]: 0.5
Binding of serum 1a to linear peptides of protein X1 of SARS-CoV Urbani [2]: 0.8
Binding of serum 1a to looped/cyclic peptides of protein X1 of SARS-CoV Urbani [2]: 0.5
Binding of serum 1b to linear peptides of protein X1 of SARS-CoV Urbani [2]: 0.7
Binding of serum 1b to looped/cyclic peptides of protein X1 of SARS-CoV Urbani [2]: 0.5
Binding of serum 2 to linear peptides of protein X1 of SARS-CoV Urbani [2]: 0.5
Binding of serum 2 to looped/cyclic peptides of protein X1 of SARS-CoV Urbani [2]: 0.4
Binding of serum 6 to linear peptides of protein X1 of SARS-CoV Urbani [2]: 0.5
Binding of serum 6 to looped/cyclic peptides of protein X1 of SARS-CoV Urbani [2]: 0.4
Binding of serum 37 to linear peptides of protein X1 of SARS-CoV Urbani [2]: 0.7
Binding of serum 37 to looped/cyclic peptides of protein X1 of SARS-CoV Urbani [2]: 0.7
Binding of serum 62 to linear peptides of protein X1 of SARS-CoV Urbani [2]: 0.7
Binding of serum 62 to looped/cyclic peptides of protein X1 of SARS-CoV Urbani [2]: 0.5
Binding of serum London to linear peptides of protein X1 of SARS-CoV Urbani [2]: 0.3
Binding of serum London to looped/cyclic peptides of protein X1 of SARS-CoV Urbani [2]: 0.2
Binding of serum SARS-green to linear peptides of protein X1 of SARS-CoV Urbani [2]: 0.5
Binding of serum SARS-green to looped/cyclic peptides of protein X1 of SARS-CoV Urbani [2]: 0.3
Binding of serum SARS-yellow to linear peptides of protein X1 of SARS-CoV Urbani [2]: 0.5
Binding of serum SARS-yellow to looped/cyclic peptides of protein X1 of SARS-CoV Urbani [2]: 0.4
Binding of Control Serum Blood-Bank to Looped peptides [3]: 0.6
Binding of Control serum Blood-bank to linear peptides [3]: 0.6
Binding of Control serum LUMC to linear peptides [3]: 0.5
Binding of Control serum LUMC to looped peptides [3]: 0.6

FTSCELYHYQECVRG
Rabbit serum linear peptides [1]: 0.4
Rabbit serum looped peptides [1]: 0.3
Binding of serum 1a to linear peptides of protein X4 of SARS-CoV Urbani [2]: 0.8
Binding of serum 1a to looped/cyclic peptides of protein X4 of SARS-CoV Urbani [2]: 0.8
Binding of serum 1b to linear peptides of protein X4 of SARS-CoV Urbani [2]: 0.7
Binding of serum 1b to looped/cyclic peptides of protein X4 of SARS-CoV Urbani [2]: 0.7
Binding of serum 2 to linear peptides of protein X4 of SARS-CoV Urbani [2]: 0.5
Binding of serum 2 to looped/cyclic peptides of protein X4 of SARS-CoV Urbani [2]: 0.6
Binding of serum 6 to linear peptides of protein X4 of SARS-CoV Urbani [2]: 0.9
Binding of serum 6 to looped/cyclic peptides of protein X4 of SARS-CoV Urbani [2]: 0.6
Binding of serum 37 to linear peptides of protein X4 of SARS-CoV Urbani [2]: 0.8
Binding of serum 37 to looped/cyclic peptides of protein X4 of SARS-CoV Urbani [2]: 0.8
Binding of serum 62 to linear peptides of protein X4 of SARS-CoV Urbani [2]: 0.8
Binding of serum 62 to looped/cyclic peptides of protein X4 of SARS-CoV Urbani [2]: 0.7
Binding of serum London to linear peptides of protein X4 of SARS-CoV Urbani [2]: 0.9
Binding of serum London to looped/cyclic peptides of protein X4 of SARS-CoV Urbani [2]: 0.3
Binding of serum SARS-green to linear peptides of protein X4 of SARS-CoV Urbani [2]: 0.5
Binding of serum SARS-green to looped/cyclic peptides of protein X4 of SARS-CoV Urbani [2]: 0.6
Binding of serum SARS-yellow to linear peptides of protein X4 of SARS-CoV Urbani [2]: 0.3
Binding of serum SARS-yellow to looped/cyclic peptides of protein X4 of SARS-CoV Urbani [2]: 0.5
Binding of Control Serum Blood-Bank to Looped peptides [3]: 0.8
Binding of Control serum Blood-bank to linear peptides [3]: 0.7
Binding of Control serum LUMC to linear peptides [3]: 0.7
Binding of Control serum LUMC to looped peptides [3]: 0.8

FTTSLSLHKLLQTLV
Binding of a rabbit serum to linear peptides [1]: 0.1
Binding of a rabbit serum to looped peptides [1]: 0.9
Binding of serum 1a to linear peptides of protein X2 [2]: 0.5
Binding of serum 1a to looped/cyclic peptides of protein X2 of SARS-CoV Urbani [2]: 2.1
Binding of serum 1b to linear peptides of protein X2 [2]: 0.5
Binding of serum 1b to looped/cyclic peptides of protein X2 of SARS-CoV Urbani [2]: 2.5
Binding of serum 2 to linear peptides of protein X2 [2]: 0.4
Binding of serum 2 to looped/cyclic peptides of protein X2 of SARS-CoV Urbani [2]: 1.2
Binding of serum 6 to linear peptides of protein X2 [2]: 0.6
Binding of serum 6 to looped/cyclic peptides of protein X2 of SARS-CoV Urbani [2]: 0.8
Binding of serum 37 to linear peptides of protein X2 [2]: 0.5
Binding of serum 37 to looped/cyclic peptides of protein X2 of SARS-CoV Urbani [2]: 1.3
Binding of serum 62 to linear peptides of protein X2 [2]: 0.5
Binding of serum 62 to looped/cyclic peptides of protein X2 of SARS-CoV Urbani [2]: 1.7
Binding of serum London to linear peptides of protein X2 [2]: 0.4
Binding of serum London to looped/cyclic peptides of protein X2 of SARS-CoV Urbani [2]: 1.0
Binding of serum SARS-green to linear peptides of protein X2 [2]: 0.5
Binding of serum SARS-green to looped/cyclic peptides of protein X2 of SARS-CoV Urbani [2]: 1.7
Binding of serum SARS-yellow to linear peptides of protein X2 [2]: 0.4
Binding of serum SARS-yellow to looped/cyclic peptides of protein X2 of SARS-CoV Urbani [2]: 1.3
Binding of Control Serum Blood-Bank to Looped peptides [3]: 2.0
Binding of Control serum Blood-bank to linear peptides [3]: 0.6
Binding of Control serum LUMC to linear peptides [3]: 0.5
Binding of Control serum LUMC to looped peptides [3]: 1.6

FVASFRLFARTRSMW
Rabbit serum linear peptides [1]: 0.2
Rabbit serum looped peptides [1]: 0.3
Binding of serum 1a to linear peptides of protein M of SARS-CoV Urbani [2]: 0.9
Binding of serum 1b to linear peptides of protein M of SARS-CoV Urbani [2]: 1.1
Binding of serum 2 to linear peptides of protein M of SARS-CoV Urbani [2]: 0.7
Binding of serum 6 to linear peptides of protein M of SARS-CoV Urbani [2]: 1.3
Binding of serum 37 to linear peptides of protein M of SARS-CoV Urbani [2]: 0.6
Binding of serum 62 to linear peptides of protein M of SARS-CoV Urbani [2]: 0.6
Binding of serum London to linear peptides of protein M of SARS-CoV Urbani [2]: 0.9
Binding of serum SARS-green to linear peptides of protein M of SARS-CoV Urbani [2]: 0.7
Binding of serum SARS-yellow to linear peptides of protein M of SARS-CoV Urbani [2]: 0.3
Recognition of the peptide by sera of SARS-CoV infected individuals, and form (linear, looped/cyclic) in which it is recognized [2]: recognized in looped/cyclic form
Binding of Control Serum Blood-Bank to Looped peptides of the protein M of SARS-CoV Urbani [3]: 0.6
Binding of Control serum Blood-bank to linear peptides of the protein M of SARS-CoV Urbani [3]: 0.9
Binding of Control serum LUMC to linear peptides of the protein M of SARS-CoV Urbani [3]: 1.0
Binding of Control serum LUMC to looped peptides of the protein M of SARS-CoV Urbani [3]: 0.7

FVTIYSHLLLVAAGM
Binding of a rabbit serum to linear peptides [1]: 0.1
Binding of a rabbit serum to looped peptides [1]: 0.5
Binding of serum 1a to linear peptides of protein X1 of SARS-CoV Urbani [2]: 0.7
Binding of serum 1a to looped/cyclic peptide (PEPSCAN-ELISA) [2]: 0.5
Binding of serum 1b to linear peptides of protein X1 of SARS-CoV Urbani [2]: 0.5
Binding of serum 1b to looped/cyclic peptide (PEPSCAN-ELISA) [2]: 0.3
Binding of serum 2 to linear peptides of protein X1 of SARS-CoV Urbani [2]: 0.6
Binding of serum 2 to looped/cyclic peptide (PEPSCAN-ELISA) [2]: 0.3
Binding of serum 6 to linear peptides of protein X1 of SARS-CoV Urbani [2]: 0.4
Binding of serum 6 to looped/cyclic peptide (PEPSCAN-ELISA) [2]: 0.3
Binding of serum 37 to linear peptides of protein X1 of SARS-CoV Urbani [2]: 0.5
Binding of serum 37 to looped/cyclic peptide (PEPSCAN-ELISA) [2]: 0.5
Binding of serum 62 to linear peptides of protein X1 of SARS-CoV Urbani [2]: 0.5
Binding of serum 62 to looped/cyclic peptide (PEPSCAN-ELISA) [2]: 0.5
Binding of serum London to linear peptides of protein X1 of SARS-CoV Urbani [2]: 0.2
Binding of serum London to looped/cyclic peptide (PEPSCAN-ELISA) [2]: 0.2
Binding of serum SARS-green to linear peptides of protein X1 of SARS-CoV Urbani [2]: 0.3
Binding of serum SARS-green to looped/cyclic peptide (PEPSCAN-ELISA) [2]: 0.2
Binding of serum SARS-yellow to linear peptides of protein X1 of SARS-CoV Urbani [2]: 0.5
Binding of serum SARS-yellow to looped/cyclic peptide (PEPSCAN-ELISA) [2]: 0.3
Binding of Control Serum Blood-Bank to Looped peptides [3]: 0.6
Binding of Control serum Blood-bank to linear peptides [3]: 0.6
Binding of Control serum LUMC to linear peptides [3]: 0.5
Binding of Control serum LUMC to looped peptides [3]: 0.5
